Test results taken from US8518466B2 (Shenzhen Hazardous Waste Treatment Station Ltd., priority 2008, dated 2013).

Tested on: weaned piglet
Details: piglets
Experimental: According to the weight, sex, litter, the 60 weaned piglets were randomly divided into five groups. Group 1 is the control group using corn-soybean meal-dray whey powder diet with adding 150 mg/kg of basic copper chloride but without adding selenium. Group 2 and 3 are testing group using corn-soybean meal-dray whey powder diet with adding 0.3 mg/kg and 0.5 mg/kg of sodium selenite respectively, and adding 150 mg/kg of basic copper chloride. […] The testing period is 35 days, including 7 days of pre-test period and 28 days of formal test period.

O=[Se](O)O [sodium selenite]
selenium level of kidney compared with control group (0.3 and 0.5 mg/kg in diet): significantly higher | selenium level of liver compared with control group (0.3 and 0.5 mg/kg in diet): significantly higher | copper content in liver among groups (all groups): almost the same
